Values of other authors, collected in US20180311177A1, “Therapeutic Nanoparticles Comprising A Therapeutic Agent and Methods of Making and Using Same” (Pfizer Inc., priority 2015, published 2018).

Experiments:
[1] = not given; remark: listed apart in the source

log P | Compound | pKa [1]
4.25 | CCCCCCCCCCCCN [dodecylamine] | 10.21
2.89 | c1ccc(CNCCNCc2ccccc2)cc1 [N,N′-dibenzylethylenediamine] | –

Compound | log P | pKa [1]
c1ccc(CCNCc2ccccc2)cc1 [N-(phenylmethyl)benzeneethanamine] | 3.54 | 9.88
